Source: ChEMBL document CHEMBL6121070, “Covalent-Allosteric Inhibitors: Do We Get the Best of Both Worlds?” (J Med Chem, 2025)
pIC50, pKi: −log10 of the molar value.

Legend:
[1] = Covalent allosteric inhibition of full length AKT (unknown origin); design: species or system Homo sapiens
[2] = Non-competitive allosteric inhibition of PTP1B (unknown origin) transformed in Escherichia coli BL21; design: species or system Homo sapiens
[3] = molecular target: T1, Tyrosine-protein phosphatase non-receptor type 11 (Homo sapiens, UniProt Q06124); test: Binding affinity to SHP2 (unknown origin) assessed as inhibition constant
T1 sequence (Q06124 whole entry): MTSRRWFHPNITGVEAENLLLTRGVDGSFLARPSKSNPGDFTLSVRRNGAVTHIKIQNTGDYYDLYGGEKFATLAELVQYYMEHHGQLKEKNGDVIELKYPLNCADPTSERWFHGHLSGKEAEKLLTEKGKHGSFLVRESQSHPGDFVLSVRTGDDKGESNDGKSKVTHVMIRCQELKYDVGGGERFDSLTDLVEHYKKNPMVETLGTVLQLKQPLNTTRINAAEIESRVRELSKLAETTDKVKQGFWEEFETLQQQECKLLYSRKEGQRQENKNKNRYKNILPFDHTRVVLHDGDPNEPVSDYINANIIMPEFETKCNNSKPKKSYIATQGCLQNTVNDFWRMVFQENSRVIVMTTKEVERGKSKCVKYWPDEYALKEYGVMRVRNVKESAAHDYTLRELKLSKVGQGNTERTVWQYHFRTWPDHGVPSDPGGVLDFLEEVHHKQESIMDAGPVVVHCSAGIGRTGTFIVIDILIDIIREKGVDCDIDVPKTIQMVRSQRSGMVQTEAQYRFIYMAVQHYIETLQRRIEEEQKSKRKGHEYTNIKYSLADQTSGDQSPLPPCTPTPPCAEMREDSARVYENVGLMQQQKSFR

[4] = molecular target: T2, Tyrosine-protein phosphatase non-receptor type 1 (Homo sapiens, UniProt P18031); test: Inhibition of 6xHis-tagged human PTP1B catalytic domain using pNPP as substrate by […] based assay
T2 sequence (P18031 whole entry): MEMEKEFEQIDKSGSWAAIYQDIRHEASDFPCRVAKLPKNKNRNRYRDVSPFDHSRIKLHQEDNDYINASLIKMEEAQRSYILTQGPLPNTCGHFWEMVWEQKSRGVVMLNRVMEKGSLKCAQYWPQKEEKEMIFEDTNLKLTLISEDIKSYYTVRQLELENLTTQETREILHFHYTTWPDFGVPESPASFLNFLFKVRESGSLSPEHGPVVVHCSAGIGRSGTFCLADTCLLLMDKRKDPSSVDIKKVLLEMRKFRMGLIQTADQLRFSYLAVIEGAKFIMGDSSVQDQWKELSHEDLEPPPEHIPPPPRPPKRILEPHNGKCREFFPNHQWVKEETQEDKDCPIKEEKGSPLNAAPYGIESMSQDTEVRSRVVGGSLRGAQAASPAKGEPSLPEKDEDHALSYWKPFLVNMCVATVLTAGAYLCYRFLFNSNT

**Q.** With `C=CC(=O)Nc1cccc(C(=O)NC2CCN(Cc3ccc(-c4nc5cc[nH]c(=O)c5cc4-c4ccccc4)cc3)CC2)c1` as the compound, how does the pKi [1] read?
**A.** 8.16

**Q.** With `CN(C)CCSSCC(=O)Nc1cc(-c2ccc(F)cc2F)ccc1O` as the compound, how does the pKi [2] read?
**A.** 5.15

**Q.** With `C=CC(=O)Nc1ccnc2ccccc12` as the compound, how does the pKi [3] read?
**A.** 3.55

**Q.** And the pIC50 [4]?
**A.** 4.46
